The values that follow come from BindingDB's records for doi:10.1016/j.bmcl.2004.04.033 (Eli Lilly, 2004).

Counter-ions that a name gives are not always drawn.

Experiment [1] addresses Cyclin-dependent kinase 4/G1/S-specific cyclin-D1 (Homo sapiens, UniProt P11802). Briefly: CDK Kinase Inhibition Assay. As to conditions: pH 7; 22 °C. As for the experimental part: In vitro CDK assay using purified enzyme, was incubated at room temperature with substrate, and test compounds in the presence of ATP/[gamma-33P]ATP. 33P incorporation was measured with a Top Count (Packard). IC50 is the inhibitor concentration which inhibits 50% of kinase activity that catalyzes the transfer of the terminal phosphate from 33P labeled ATP to the substrate.

The target in experiment [2] is cAMP-dependent protein kinase catalytic subunit alpha (Bos taurus, UniProt P00517). Briefly: CDK Kinase Inhibition Assay. As to conditions: 25 °C.

Cyclin-dependent kinase 4/G1/S-specific cyclin-D1, sequence (P11802 whole entry): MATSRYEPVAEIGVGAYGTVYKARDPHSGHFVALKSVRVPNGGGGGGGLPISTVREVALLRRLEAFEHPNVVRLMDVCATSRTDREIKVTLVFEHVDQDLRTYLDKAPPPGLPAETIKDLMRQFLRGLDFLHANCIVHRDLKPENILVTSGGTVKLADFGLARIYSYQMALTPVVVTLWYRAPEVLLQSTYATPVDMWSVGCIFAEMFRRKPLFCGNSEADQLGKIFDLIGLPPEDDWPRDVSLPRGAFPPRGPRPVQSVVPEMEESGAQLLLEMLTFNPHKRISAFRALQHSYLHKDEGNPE
Cyclin-dependent kinase 4/G1/S-specific cyclin-D1, sequence (P24385 whole entry, further chain): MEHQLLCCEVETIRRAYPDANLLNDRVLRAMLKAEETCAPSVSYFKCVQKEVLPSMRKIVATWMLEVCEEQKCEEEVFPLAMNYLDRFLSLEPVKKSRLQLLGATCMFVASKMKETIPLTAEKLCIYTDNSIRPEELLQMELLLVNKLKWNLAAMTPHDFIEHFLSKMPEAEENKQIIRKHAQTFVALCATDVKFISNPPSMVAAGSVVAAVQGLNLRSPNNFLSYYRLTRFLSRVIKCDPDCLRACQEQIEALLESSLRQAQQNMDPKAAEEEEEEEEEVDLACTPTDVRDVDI

As to `O=C1NC(=O)c2c1c1c3ccc(F)cc3[nH]c1c1c2c2cccc3c2n1CC(CCl)C3` (stereo not given) [24-(chloromethyl)-7-fluoro-1,4,14-triazaheptacyclo[16.7.1.0^{2,17}.0^{3,11}.0^{5,10}.0^{12,16}.0^{22,26}]hexacosa-2(17),3(11),5(10),6,8,12(16),18(26),19,21-nonaene-13,15-dione], half-maximal inhibition in experiment [1] (IC50) was put at 64 nM. This counts as double-digit nanomolar.

On to `O=C1NC(=O)c2c1c1c3ccccc3[nH]c1c1c2c2cccc3c2n1CC(CO)C3` (stereo not given) [24-(hydroxymethyl)-1,4,14-triazaheptacyclo[16.7.1.0^{2,17}.0^{3,11}.0^{5,10}.0^{12,16}.0^{22,26}]hexacosa-2(17),3(11),5(10),6,8,12(16),18(26),19,21-nonaene-13,15-dione], for which the half-inhibitory concentration (IC50) (usually the concentration needed to halve the response being measured) in experiment [2] was over 2000 nM.

Consider `O=C1NC(=O)c2c1c1c3ccccc3ccc1c1c2c2cccc3c2n1C(CO)CC3` (stereo not given) [26-(hydroxymethyl)-1,15-diazaheptacyclo[17.7.1.0^{2,18}.0^{3,12}.0^{6,11}.0^{13,17}.0^{23,27}]heptacosa-2(18),3(12),4,6(11),7,9,13(17),19(27),20,22-decaene-14,16-dione], for which the half-maximal inhibitory concentration (IC50) in experiment [2] was over 2000 nM.

With `O=C1NC(=O)c2c1c1c3ccccc3[nH]c1c1c2c2cccc3c2n1CCC3CO` (stereo not given) [23-(hydroxymethyl)-1,4,14-triazaheptacyclo[16.7.1.0^{2,17}.0^{3,11}.0^{5,10}.0^{12,16}.0^{22,26}]hexacosa-2(17),3(11),5(10),6,8,12(16),18(26),19,21-nonaene-13,15-dione], the concentration for half-maximal inhibition (IC50) in experiment [2] is over 2000 nM.

As to `O=C1NC(=O)c2c1c1c3ccccc3ccc1c1c2c2cccc3c2n1CC(CO)C3` (stereo not given) [25-(hydroxymethyl)-1,15-diazaheptacyclo[17.7.1.0^{2,18}.0^{3,12}.0^{6,11}.0^{13,17}.0^{23,27}]heptacosa-2(18),3(12),4,6(11),7,9,13(17),19(27),20,22-decaene-14,16-dione], the IC50 in experiment [2] was over 2000 nM.

In the case of `CN(C)CC1Cc2cccc3c4c5c(c6c7ccccc7[nH]c6c4n(c23)C1)C(=O)NC5=O` (stereo not given) [24-[(dimethylamino)methyl]-1,4,14-triazaheptacyclo[16.7.1.0^{2,17}.0^{3,11}.0^{5,10}.0^{12,16}.0^{22,26}]hexacosa-2(17),3(11),5(10),6,8,12(16),18(26),19,21-nonaene-13,15-dione], inhibition in experiment [1] was half-maximal at 898 nM (IC50).

Take `O=C1NC(=O)c2c1c1c3ccc(F)cc3[nH]c1c1c2c2cccc3c2n1C(CO)CC3` (stereo not given) [7-fluoro-25-(hydroxymethyl)-1,4,14-triazaheptacyclo[16.7.1.0^{2,17}.0^{3,11}.0^{5,10}.0^{12,16}.0^{22,26}]hexacosa-2(17),3(11),5(10),6,8,12(16),18(26),19,21-nonaene-13,15-dione]: the concentration for half-maximal inhibition (IC50) in experiment [2] was over 2000 nM.

In experiment [1], `NC(=O)[C@@H]1CCCN1CC1Cc2cccc3c4c5c(c6c7ccc(F)cc7[nH]c6c4n(c23)C1)C(=O)NC5=O` (stereo partly drawn) [(2S)-1-({7-fluoro-13,15-dioxo-1,4,14-triazaheptacyclo[16.7.1.0^{2,17}.0^{3,11}.0^{5,10}.0^{12,16}.0^{22,26}]hexacosa-2(17),3(11),5(10),6,8,12(16),18(26),19,21-nonaen-24-yl}methyl)pyrrolidine-2-carboxamide] had an IC50 of over 2000 nM.

For `O=C1NC(=O)c2c1c1c3ccc(Br)cc3[nH]c1c1c2c2cccc3c2n1CC(CO)C3` (stereo not given) [7-bromo-24-(hydroxymethyl)-1,4,14-triazaheptacyclo[16.7.1.0^{2,17}.0^{3,11}.0^{5,10}.0^{12,16}.0^{22,26}]hexacosa-2(17),3(11),5(10),6,8,12(16),18(26),19,21-nonaene-13,15-dione], in experiment [2], the IC50 was over 2000 nM.

The compound `COC(=O)CC(NCC1Cc2cccc3c4c5c(c6c7ccc(F)cc7[nH]c6c4n(c23)C1)C(=O)NC5=O)C(=O)OC` (stereo not given) [1,4-dimethyl 2-[({7-fluoro-13,15-dioxo-1,4,14-triazaheptacyclo[16.7.1.0^{2,17}.0^{3,11}.0^{5,10}.0^{12,16}.0^{22,26}]hexacosa-2(17),3(11),5(10),6,8,12(16),18(26),19,21-nonaen-24-yl}methyl)amino]butanedioate] returned a 50% inhibitory concentration (IC50) in experiment [1] of 671 nM.

Consider `CNCC1Cc2cccc3c4c5c(c6c7ccc(F)cc7[nH]c6c4n(c23)C1)C(=O)NC5=O` (stereo not given) [7-fluoro-24-[(methylamino)methyl]-1,4,14-triazaheptacyclo[16.7.1.0^{2,17}.0^{3,11}.0^{5,10}.0^{12,16}.0^{22,26}]hexacosa-2(17),3(11),5(10),6,8,12(16),18(26),19,21-nonaene-13,15-dione hydrochloride], for which the half-maximal inhibitory concentration (IC50) is 8 nM in experiment [1] and 383 nM in experiment [2].

In turn, `COc1ccc2c(c1)[nH]c1c2c2c(c3c4cccc5c4n(c13)CC(CO)C5)C(=O)NC2=O` (stereo not given) [24-(hydroxymethyl)-7-methoxy-1,4,14-triazaheptacyclo[16.7.1.0^{2,17}.0^{3,11}.0^{5,10}.0^{12,16}.0^{22,26}]hexacosa-2(17),3(11),5(10),6,8,12(16),18(26),19,21-nonaene-13,15-dione] registered a half-maximal inhibitory concentration (IC50) in experiment [2] of over 2000 nM.

In turn, `O=C1NC(=O)c2c1c1c3ccc(F)cc3[nH]c1c1c2c2cccc3c2n1CC(CO)C3` (stereo not given) [7-fluoro-24-(hydroxymethyl)-1,4,14-triazaheptacyclo[16.7.1.0^{2,17}.0^{3,11}.0^{5,10}.0^{12,16}.0^{22,26}]hexacosa-2(17),3(11),5(10),6,8,12(16),18(26),19,21-nonaene-13,15-dione] displayed an IC50 in experiment [2] of over 2000 nM.

Turning to `O=C1NC(=O)c2c1c1c3ccc(C(F)(F)F)cc3[nH]c1c1c2c2cccc3c2n1CC(CO)C3` (stereo not given) [24-(hydroxymethyl)-7-(trifluoromethyl)-1,4,14-triazaheptacyclo[16.7.1.0^{2,17}.0^{3,11}.0^{5,10}.0^{12,16}.0^{22,26}]hexacosa-2(17),3(11),5(10),6,8,12(16),18(26),19,21-nonaene-13,15-dione], the IC50 in experiment [2] was over 2000 nM.
